# Tests used:
# Type in all cases: cell-based, mouse
# [1] = test system: 3T3L1 cells; assay: [3-H]-deoxy-2-D-Glucose uptake in 3T3L1 adipocytes; details: 500 nM; for glucose uptake: added day 3 of differentiation, maintained to day 8, without insulin; for glucose uptake with addition of insulin: day 3 to day 8, 100 nM insulin for 30 minutes
# Description: To examine glucose uptake, 3T3L1 cells were treated on day 3 of differentiation with either 2-(3,5-dioxo-4-azatricyclo[5.2.1.0(2,6)]dec-8-en-4-yl)-4-methylpentanoic acid or 4-[(3,4-dichlorophenyl)amino]-3-(3-methylbenzyl)-4-oxobutanoic acid at 500 nM concentration and maintained in culture up to day 8 when the cells mature into adipocytes with well-developed lipid bodies. After 100 nM insulin was added to cells and maintained for 30 minutes, [3-H]-deoxy-2-D-Glucose uptake was measured.
# [2] = test system: sortilin; assay: Western blot for sortilin expression in treated 3T3L1 cells; details: 500 nM, added day 3 of differentiation, maintained to day 8; whole cell lysate
# Description: (§1) 2-(3,5-Dioxo-4-azatricyclo[5.2.1.0˜2,6˜]dec-8-en-4-yl)-4-methylpentanoic acid and 4-[(3,4-dichlorophenyl)amino]-3-(3-methylbenzyl)-4-oxobutanoic acid were used to treat 3T3L1 cells at 500 nM concentration on day 3 of differentiation and maintained in culture up to day 8 when the cells mature into adipocytes with well-developed lipid bodies. Whole cell lysate was isolated and western blot analysis was performed using anti-sortilin antibody. […] To determine the compounds effect sortilin gene expression, 3T3L1 cells were treated as above and total RNA was isolated. RT-PCR was performed using sortilin primers.
# [3] = test system: sortilin mRNA; assay: RT-PCR for sortilin mRNA in treated 3T3L1 cells; details: 500 nM, added day 3 of differentiation, maintained to day 8; total RNA
# Description: as §1
SMILES,glucose uptake [1],glucose uptake with addition of insulin [1],"sortilin expression (western blot, anti-sortilin antibody) [2]",mRNA levels of sortilin (RT-PCR) [3]
"Cc1cccc(CC(CC(=O)O)C(=O)Nc2ccc(Cl)c(Cl)c2)c1 (centres unmarked) [4-[(3,4-dichlorophenyl)amino]-3-(3-methylbenzyl)-4-oxobutanoic acid]",increase in glucose uptake,further increased,increase in sortilin expression,not affected
"CC(C)CC(C(=O)O)N1C(=O)C2C3C=CC(C3)C2C1=O (centres unmarked) [2-(3,5-dioxo-4-azatricyclo[5.2.1.0(2,6)]dec-8-en-4-yl)-4-methylpentanoic acid]",increase in glucose uptake,further increased,increase in sortilin expression,not affected

# Reference: patent US10849896B2, “Sortilin-binding small molecules for increasing glucose uptake” (University of South Florida, priority 2015, dated 2020)
